Results from US6737383B1, “Herbicidal oxadiazolidines” (priority 1999, dated 2004).

Key:
corn = experiment: Test B pre/postemergence corn; format: in vivo, Zea mays
In short: (§1)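 Response is a visual 0-to-10 score relative to untreated plants, where 0 means no effect and 10 means complete control, taken twelve to sixteen days after application. Treatments went onto soil at planting and onto foliage of 1- to 4-leaf plants, using a surfactant-containing non-phytotoxic solvent.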

velvetleaf = experiment: Test B pre/postemergence velvetleaf; format: in vivo, Abutilon theophrasti; details: for Plant response rating, Velvetleaf: Postemergence
In short: as §1

wheat = experiment: Test B pre/postemergence wheat; format: in vivo, Triticum aestivum; details: for Plant response rating, Wheat: Postemergence
In short: as §1

purple nutsedge = experiment: Test B pre/postemergence purple nutsedge; format: in vivo, Cyperus rotundus
In short: as §1

rape = experiment: Test B pre/postemergence rape; format: in vivo, Brassica napus
In short: as §1

surinam grass = experiment: Test B pre/postemergence surinam grass; format: in vivo, Brachiaria decumbens
In short: as §1

blackgrass = experiment: Test B pre/postemergence blackgrass; format: in vivo, Alopecurus myosuroides
In short: as §1

morningglory = experiment: Test B pre/postemergence morningglory; format: in vivo, Ipomoea hederacea
In short: as §1

cocklebur = experiment: Test B pre/postemergence cocklebur; format: in vivo, Xanthium strumarium
In short: as §1

wild oat = experiment: Test B pre/postemergence wild oat; format: in vivo, Avena fatua; details: for Plant response rating, Wild oats: Postemergence
In short: as §1

soybean = experiment: Test B pre/postemergence soybean; format: in vivo, Glycine max; details: for Plant response rating, Soybean: Postemergence
In short: as §1

giant foxtail = experiment: Test B pre/postemergence giant foxtail; format: in vivo, Setaria faberii
In short: as §1

pigweed = experiment: Test B pre/postemergence pigweed; format: in vivo, Amaranthus retroflexus; details: for Plant response rating, Redroot pigweed: Postemergence
In short: as §1

crabgrass = experiment: Test B pre/postemergence crabgrass; format: in vivo, Digitaria sanguinalis
In short: as §1

sugar beet = experiment: Test B pre/postemergence sugar beet; format: in vivo, Beta vulgaris; details: for Plant response rating, Sugarbeets: Postemergence
In short: as §1

bedstraw = experiment: Test B pre/postemergence bedstraw; format: in vivo, Galium aparine
In short: as §1

[1] = Postemergence, Rate 62 g/ha, scale of 0 to 10, 0 is no effect, 10 is complete control
[2] = Postemergence, Rate 125 g/ha, scale 0 to 10, 0 is no effect, 10 is complete control
[3] = Postemergence, Rate 500 g/ha, scale of 0 to 10 where 0 is no effect and 10 is complete control
[4] = Preemergence, Rate 62 g/ha, scale 0 to 10 (0 no effect, 10 complete control)
[5] = Preemergence, Rate 125 g/ha, scale 0 to 10, 0 is no effect, 10 is complete control
[6] = Preemergence, Rate 500 g/ha, scale of 0 to 10 where 0 is no effect and 10 is complete control
[7] = Rate 250 g/ha, Postemergence, scale of 0 to 10 where 0 is no effect and 10 is complete control
[8] = Rate 500 g/ha, scale of 0 to 10 where 0 is no effect and 10 is complete control
[9] = Rate 250 g/ha, scale of 0 to 10 where 0 is no effect and 10 is complete control

SMILES: COC(=O)CCCn1c(=O)on(C(=O)N(c2ccccc2)C(C)C)c1=O [Compound 572]
- Corn plant response rating (corn; [1]): 0
- Corn plant response rating (corn; [2]): 0
- Plant response rating, Corn (corn; [3]): 0
- Corn plant response rating (corn; [4]): 0
- Corn plant response rating (corn; [5]): 0
- Corn plant response rating (0 to 10 scale) (corn; Preemergence, Rate 250 g/ha): 0
- Corn plant response rating (corn; [6]): 0
- Plant response rating, Corn (corn; [7]): 0
- Plant response rating, Velvetleaf (velvetleaf; [8]): 7
- Velvetleaf plant response rating (velvetleaf; [4]): 0
- Velvetleaf plant response rating (velvetleaf; [5]): 0
- Velvetleaf plant response rating (0 to 10 scale) (velvetleaf; Preemergence, Rate 250 g/ha): 0
- Velvetleaf plant response rating (velvetleaf; [6]): 2
- Plant response rating, Velvetleaf (velvetleaf; [9]): 0
- Plant response rating, Wheat (wheat; [8]): 0
- Wheat plant response rating (wheat; [4]): 0
- Wheat plant response rating (wheat; [5]): 0
- Wheat plant response rating (0 to 10 scale) (wheat; Preemergence, Rate 250 g/ha): 0
- Wheat plant response rating (wheat; [6]): 0
- Plant response rating, Wheat (wheat; [9]): 0
- Nutsedge plant response rating (purple nutsedge; [1]): 0
- Nutsedge plant response rating (purple nutsedge; [2]): 0
- Nutsedge plant response rating (purple nutsedge; [4]): 0
- Nutsedge plant response rating (purple nutsedge; [5]): 0
- Nutsedge plant response rating (0 to 10 scale) (purple nutsedge; Preemergence, Rate 250 g/ha): 0
- Nutsedge plant response rating (purple nutsedge; [6]): 0
- Plant response rating, Nutsedge (purple nutsedge; [7]): 0
- Rape plant response rating (rape; [1]): 2
- Rape plant response rating (rape; [2]): 3
- Plant response rating, Rape (rape; [3]): 4
- Rape plant response rating (rape; [4]): 0
- Rape plant response rating (rape; [5]): 0
- Rape plant response rating (0 to 10 scale) (rape; Preemergence, Rate 250 g/ha): 0
- Rape plant response rating (rape; [6]): 0
- Plant response rating, Rape (rape; [7]): 3
- B. signalgrass plant response rating (surinam grass; [1]): 0
- B. signalgrass plant response rating (surinam grass; [2]): 0
- Plant response rating, B. signalgrass (surinam grass; [3]): 0
- B. signalgrass plant response rating (surinam grass; [4]): 0
- B. signalgrass plant response rating (surinam grass; [5]): 0
- B. signalgrass plant response rating (0 to 10 scale, 0 is no effect, 10 is complete control) (surinam grass; Preemergence, Rate 250 g/ha): 0
- B. signalgrass plant response rating (surinam grass; [6]): 0
- Plant response rating, B. signalgrass (surinam grass; [7]): 0
- Blackgrass plant response rating (blackgrass; [1]): 0
- Blackgrass plant response rating (blackgrass; [2]): 0
- Plant response rating, Blackgrass (blackgrass; [3]): 0
- Blackgrass plant response rating (blackgrass; [4]): 0
- Blackgrass plant response rating (blackgrass; [5]): 0
- Blackgrass plant response rating (0 to 10 scale) (blackgrass; Preemergence, Rate 250 g/ha): 0
- Blackgrass plant response rating (blackgrass; [6]): 0
- Plant response rating, Blackgrass (blackgrass; [7]): 0
- Morningglory plant response rating (morningglory; [1]): 3
- Morningglory plant response rating (morningglory; [2]): 3
- Plant response rating, Morningglory (morningglory; [3]): 10
- Morningglory plant response rating (morningglory; [4]): 0
- Morningglory plant response rating (morningglory; [5]): 0
- Morningglory plant response rating (0 to 10 scale) (morningglory; Preemergence, Rate 250 g/ha): 0
- Morningglory plant response rating (morningglory; [6]): 0
- Plant response rating, Morningglory (morningglory; [7]): 5
- Cocklebur plant response rating (cocklebur; [1]): 0
- Cocklebur plant response rating (cocklebur; [2]): 0
- Plant response rating, Cocklebur (cocklebur; [3]): 0
- Cocklebur plant response rating (cocklebur; [4]): 0
- Cocklebur plant response rating (cocklebur; [5]): 0
- Cocklebur plant response rating (0 to 10 scale) (cocklebur; Preemergence, Rate 250 g/ha): 0
- Cocklebur plant response rating (cocklebur; [6]): 0
- Plant response rating, Cocklebur (cocklebur; [7]): 0
- Plant response rating, Wild oats (wild oat; [8]): 0
- Wild oats plant response rating (wild oat; [4]): 0
- Wild oats plant response rating (wild oat; [5]): 0
- Wild oats plant response rating (0 to 10 scale) (wild oat; Preemergence, Rate 250 g/ha): 0
- Wild oats plant response rating (wild oat; [6]): 0
- Plant response rating, Wild oats (wild oat; [9]): 0
- Plant response rating, Soybean (soybean; [8]): 7
- Soybean plant response rating (soybean; [4]): 0
- Soybean plant response rating (soybean; [5]): 0
- Soybean plant response rating (0 to 10 scale) (soybean; Preemergence, Rate 250 g/ha): 0
- Soybean plant response rating (soybean; [6]): 0
- Plant response rating, Soybean (soybean; [9]): 5
- Giant foxtail plant response rating (giant foxtail; [1]): 0
- Giant foxtail plant response rating (giant foxtail; [2]): 0
- Plant response rating, Giant foxtail (giant foxtail; [3]): 0
- Giant foxtail plant response rating (giant foxtail; [4]): 0
- Giant foxtail plant response rating (giant foxtail; [5]): 0
- Giant foxtail plant response rating (0 to 10 scale) (giant foxtail; Preemergence, Rate 250 g/ha): 4
- Giant foxtail plant response rating (giant foxtail; [6]): 7
- Plant response rating, Giant foxtail (giant foxtail; [7]): 0
- Plant response rating, Redroot pigweed (pigweed; [8]): 0
- Redroot pigweed plant response rating (pigweed; [4]): 0
- Redroot pigweed plant response rating (pigweed; [5]): 0
- Redroot pigweed plant response rating (0 to 10 scale) (pigweed; Preemergence, Rate 250 g/ha): 0
- Redroot pigweed plant response rating (pigweed; [6]): 5
- Plant response rating, Redroot pigweed (pigweed; [9]): 0
- Crabgrass plant response rating (crabgrass; [1]): 0
- Crabgrass plant response rating (crabgrass; [2]): 0
- Plant response rating, Crabgrass (crabgrass; [3]): 8
- Crabgrass plant response rating (crabgrass; [4]): 0
- Crabgrass plant response rating (crabgrass; [5]): 0
- Crabgrass plant response rating (0 to 10 scale) (crabgrass; Preemergence, Rate 250 g/ha): 0
- Crabgrass plant response rating (crabgrass; [6]): 0
- Plant response rating, Crabgrass (crabgrass; [7]): 6
- Plant response rating, Sugarbeets (sugar beet; [8]): 0
- Sugarbeets plant response rating (sugar beet; [4]): 0
- Sugarbeets plant response rating (sugar beet; [5]): 0
- Sugarbeets plant response rating (0 to 10 scale) (sugar beet; Preemergence, Rate 250 g/ha): 0
- Sugarbeets plant response rating (sugar beet; [6]): 0
- Plant response rating, Sugarbeets (sugar beet; [9]): 0
- Bedstraw plant response rating (bedstraw; [1]): 0
- Bedstraw plant response rating (bedstraw; [4]): 0
- Bedstraw plant response rating (bedstraw; [5]): 0
- Bedstraw plant response rating (0 to 10 scale) (bedstraw; Preemergence, Rate 250 g/ha): 0
- Bedstraw plant response rating (bedstraw; [6]): 0
- Plant response rating, Bedstraw (bedstraw; [7]): 0
